The term MIC denotes the lowest concentration that inhibits growth of the organism. The low end stands for a more susceptible organism, the high end for a less susceptible organism. Broadly, the fraction unbound is the share of the substance not bound to proteins or other matrix. For orientation: AUC means concentration integrated over time. Lower therefore signals less exposure. What is called clearance is a measure of how efficiently the substance is removed, as volume per time. Low values mean a low capacity for elimination, high ones a high capacity for elimination. What is called half-life is the time in which the quantity being followed falls by half. One may read the IC50 as the concentration at which inhibition is half-maximal. The low end stands for inhibition by little substance, the high end for a need for much substance.

For data set [1], the system named is Escherichia coli. Briefly: microbe, parasite or virus in culture.
Description: Antimicrobial activity against Escherichia coli after 16 to 20 hrs by 2-fold microbroth dilution method
A short description of data set [2]: Thermodynamic solubility of the compound in thermosol at pH 9. It counts as physicochemical. The note with it: buffer, read-out: Therm_solubility.
Data set [3] has as its system Pseudomonas aeruginosa. Briefly: Antimicrobial activity against Pseudomonas aeruginosa PA3919 with (delta(mexAB-OprM)delta(mexXY)delta(MexZ) phenotype after 16 to 20 hrs by 2-fold microbroth dilution method. The data set is classed as functional. A general note: Dilution methods test growth across graded concentrations, often in twofold steps.
The test system of data set [4] is Acinetobacter sp. Briefly: Antimicrobial activity against Acinetobacter sp. after 16 to 20 hrs by 2-fold microbroth dilution method. The data set is classed as functional.
Data set [5] has as its system Rattus norvegicus. Briefly: Free AUC in rat at 10 mg/kg. The data set is classed as ADME, organism-based. Also on record: dose 10 mg/kg. As to conditions: in vivo.
The nature of data set [6]: Fraction unbound in human plasma relative to untreated control. The data set is classed as ADME, cell-free.
Data set [7] deals with Pseudomonas aeruginosa. Briefly: Antimicrobial activity against wild type Pseudomonas aeruginosa PA01 after 16 to 20 hrs by 2-fold microbroth dilution method. The data set is classed as functional.
The test system of data set [8] is Pseudomonas aeruginosa. Put plainly: microbe, parasite or virus in culture.
Description: Antimicrobial activity against Pseudomonas aeruginosa after 16 to 20 hrs by 2-fold microbroth dilution method
Data set [9] has as its system Klebsiella aerogenes. Put plainly: microbe, parasite or virus in culture.
Description: Antimicrobial activity against Enterobacter aerogenes after 16 to 20 hrs by 2-fold microbroth dilution method
Data set [10] is described as follows: AUC in rat at 10 mg/kg. Also on record: dose 10 mg/kg. The data set is classed as ADME, organism-based. The note with it: plasma.
The nature of data set [11]: Thermodynamic solubility of the compound in thermosol at pH 3.0. The data set is classed as physicochemical. The note with it: buffer, read-out: Therm_solubility.
A short description of data set [12]: Thermodynamic solubility of the compound in thermosol at pH 7.4. It counts as physicochemical. As to conditions: buffer, read-out: Therm_solubility.
The nature of data set [13]: Clearance in rat at 10 mg/kg. The data set is classed as ADME, organism-based. The note with it: in vivo. Also on record: dose 10 mg/kg.
A short description of data set [14]: Fraction unbound in rat plasma relative to untreated control. The data set is classed as ADME, cell-free.
The nature of data set [15]: Half life in rat at 10 mg/kg. The data set is classed as ADME, organism-based. More on the design: dose 10 mg/kg. The note with it: in vivo.
Data set [16] is described as follows: Volume of distribution at steady state in rat at 10 mg/kg. More on the design: dose 10 mg/kg. The data set is classed as ADME, organism-based. As to conditions: in vivo, read-out: Vdss.
Data set [17] has as its system Klebsiella pneumoniae. Put plainly: microbe, parasite or virus in culture.
Description: Antimicrobial activity against Klebsiella pneumoniae after 16 to 20 hrs by 2-fold microbroth dilution method
Data set [18] concerns Citrobacter freundii. Briefly: microbe, parasite or virus in culture.
Description: Antimicrobial activity against Citrobacter freundii after 16 to 20 hrs by 2-fold microbroth dilution method
The target of data set [19] is T1, UDP-3-O-acyl-N-acetylglucosamine deacetylase (Pseudomonas aeruginosa (strain ATCC 15692 / PAO1 / 1C / PRS 101 / LMG12228), UniProt P47205).
T1 sequence (P47205 whole entry): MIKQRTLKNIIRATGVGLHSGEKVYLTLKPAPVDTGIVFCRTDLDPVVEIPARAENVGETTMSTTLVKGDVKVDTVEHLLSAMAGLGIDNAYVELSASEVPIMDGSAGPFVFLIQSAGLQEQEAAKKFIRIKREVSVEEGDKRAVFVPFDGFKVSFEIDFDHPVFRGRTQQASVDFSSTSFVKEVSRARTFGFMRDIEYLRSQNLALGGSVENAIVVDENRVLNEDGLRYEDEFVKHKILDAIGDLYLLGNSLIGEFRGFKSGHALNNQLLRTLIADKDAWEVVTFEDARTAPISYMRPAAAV
Put plainly: Inhibition of Pseudomonas aeruginosa LpxC expressed in Escherichia coli using UDP-3-O-N-acetylglucosamine substrate measured after 30 mins by mass spectrometry.

Each structure is given as a SMILES string. Values after ≈ are worked out from the molar mass of the structure shown.

On to `COc1ccc(-c2ccn(CC[C@](C)(C(=O)NO)S(C)(=O)=O)c(=O)c2)c(F)c1`, for which the MIC90 was 0.25 mg/L (≈ 0.606 µM) in [1]; over 64 mg/L in [4]; 1 mg/L (≈ 2.42 µM) in [8]; 0.5 mg/L (≈ 1.21 µM) in data set [9]; 0.5 mg/L (≈ 1.21 µM) in data set [17]; 0.5 mg/L (≈ 1.21 µM) in data set [18]. Moreover, the solubility thermodynamic was over 14 mg/mL in data set [2], 0.082 mg/mL (≈ 199 µM) in data set [11] and 0.13 mg/mL (≈ 315 µM) in [12]. For the same compound, the MIC was determined as 0.008 mg/L (≈ 0.0194 µM) in data set [3] and 0.125 mg/L (≈ 0.303 µM) in data set [7]. The compound further yielded a fAUC in [5] of 0.74 µg·h/mL. Moreover, the fraction unbound is 0.31 in data set [6] and 0.32 in data set [14]. This compound displayed an AUC in data set [10] of 2.3 µg·h/mL. In [13], this compound registered a clearance of 4.32 L/h/kg. Besides, the half-life in [15] is 1.4 h. Also, in data set [16], the Vd amounted to 1.7 L/kg.
Turning to `C[C@@](CCc1ccc(-c2ccccc2)cc1)(C(=O)NO)S(C)(=O)=O`, the MIC90 in data set [1] was 2 mg/L (≈ 5.76 µM); in [4], 32 mg/L (≈ 92.1 µM); in data set [8] it was 4 mg/L (≈ 11.5 µM); in [9], 4 mg/L (≈ 11.5 µM); in data set [17], 16 mg/L (≈ 46.1 µM); in data set [18] it was 8 mg/L (≈ 23 µM). Also, the solubility thermodynamic in data set [2] came out at 0.26 mg/mL (≈ 748 µM); in data set [11], 0.0073 mg/mL (≈ 21 µM); in data set [12], 0.0039 mg/mL (≈ 11.2 µM). The MIC in data set [3] came out at 0.008 mg/L (≈ 0.023 µM); in [7] it was 0.125 mg/L (≈ 0.36 µM). The fAUC in data set [5] turned out to be 0.075 µg·h/mL. Besides, the fraction unbound in data set [6] was found to be 0.023; in data set [14], 0.026. The same compound returned an AUC in [10] of 2.9 µg·h/mL. This compound returned a clearance in data set [13] of 3.42 L/h/kg. Also, the half-life in [15] was 3.2 h. Further, the Vd in [16] was determined as 3.8 L/kg.
For `C[C@@](CCn1ccc(-c2ccccc2)cc1=O)(C(=O)NO)S(C)(=O)=O`, the MIC90 is 8 mg/L (≈ 22 µM) in data set [1]; 32 mg/L (≈ 87.8 µM) in [4]; 2 mg/L (≈ 5.49 µM) in data set [8]; 16 mg/L (≈ 43.9 µM) in [9]; 16 mg/L (≈ 43.9 µM) in data set [17]; 8 mg/L (≈ 22 µM) in data set [18]. For the same compound, the solubility thermodynamic in data set [2] is over 16 mg/mL; in data set [11] it was 0.41 mg/mL (≈ 1130 µM); in data set [12], 0.48 mg/mL (≈ 1320 µM). For the same compound, the MIC in data set [3] was found to be 0.06 mg/L (≈ 0.165 µM); in data set [7], 0.5 mg/L (≈ 1.37 µM). Further, the fraction unbound came out at 0.14 in [6] and 0.28 in data set [14].
In the case of `C[C@@](CCn1cnc(-c2ccccc2)cc1=O)(C(=O)NO)S(C)(=O)=O`, the MIC90 was 8 mg/L (≈ 21.9 µM) in [1]; 64 mg/L (≈ 175 µM) in [4]; 4 mg/L (≈ 10.9 µM) in [8]; 16 mg/L (≈ 43.8 µM) in data set [9]; 16 mg/L (≈ 43.8 µM) in [17]; 16 mg/L (≈ 43.8 µM) in data set [18]. Further, the MIC in data set [3] amounted to 0.03 mg/L (≈ 0.0821 µM); in [7] it was 1 mg/L (≈ 2.74 µM). This compound showed an IC50 in [19] of 8.5 nM.
Turning to `C[C@@](CCn1ccc(-c2ccc3ccccc3c2)cc1=O)(C(=O)NO)S(C)(=O)=O`, the MIC90 in data set [1] was 0.06 mg/L (≈ 0.145 µM); in data set [4] it was over 64 mg/L; in [8], 1 mg/L (≈ 2.41 µM); in data set [9] it was 0.25 mg/L (≈ 0.603 µM); in [17] it was 0.5 mg/L (≈ 1.21 µM); in data set [18], 0.125 mg/L (≈ 0.302 µM). The MIC in data set [3] stood at 0.008 mg/L (≈ 0.0193 µM); in data set [7], 0.125 mg/L (≈ 0.302 µM). In [19], this compound gave an IC50 of 1.2 nM.
For `C[C@@](CCn1ccc(-c2ccc(-n3nccn3)cc2)cc1=O)(C(=O)NO)S(C)(=O)=O`, the MIC90 in data set [1] turned out to be 0.06 mg/L (≈ 0.139 µM); in data set [4], 64 mg/L (≈ 148 µM); in data set [8], 1 mg/L (≈ 2.32 µM); in data set [9], 0.125 mg/L (≈ 0.29 µM); in data set [17] it was 0.125 mg/L (≈ 0.29 µM); in data set [18], 0.125 mg/L (≈ 0.29 µM). Also, the figures for the solubility thermodynamic in data set [2], in [11] and in data set [12] were 2.74 mg/mL (≈ 6350 µM), 0.0033 mg/mL (≈ 7.65 µM) and 0.0092 mg/mL (≈ 21.3 µM), respectively. Further, the MIC stood at 0.015 mg/L (≈ 0.0348 µM) in data set [3] and 0.25 mg/L (≈ 0.579 µM) in data set [7]. In data set [5], the fAUC was determined as 0.68 µg·h/mL. Further, the values for the fraction unbound in data set [6] and in data set [14] were 0.25 and 0.13, respectively. In addition, the AUC in [10] came out at 5.2 µg·h/mL. Besides, in data set [13], the clearance came to 1.92 L/h/kg. This compound gave a half-life in data set [15] of 0.94 h. In data set [16], the Vd amounted to 0.92 L/kg.
Take `C[C@@](CCn1ccc(-c2ccc(F)c(F)c2F)cc1=O)(C(=O)NO)S(C)(=O)=O`: the MIC90 in data set [1] is 0.5 mg/L (≈ 1.2 µM); in data set [4] it was over 64 mg/L; in data set [8], 1 mg/L (≈ 2.39 µM); in data set [9], 1 mg/L (≈ 2.39 µM); in [17], 2 mg/L (≈ 4.78 µM); in data set [18], 0.5 mg/L (≈ 1.2 µM). Besides, the MIC in [3] was 0.015 mg/L (≈ 0.0359 µM); in data set [7], 0.25 mg/L (≈ 0.598 µM). Besides, the IC50 in data set [19] came out at 1.5 nM.
Take `C[C@@](CCn1cc(F)c(-c2ccccc2)cc1=O)(C(=O)NO)S(C)(=O)=O`: the MIC90 came out at 4 mg/L (≈ 10.5 µM) in data set [1]; 32 mg/L (≈ 83.7 µM) in data set [4]; 4 mg/L (≈ 10.5 µM) in data set [8]; 8 mg/L (≈ 20.9 µM) in [9]; 8 mg/L (≈ 20.9 µM) in data set [17]; 8 mg/L (≈ 20.9 µM) in data set [18]. The MIC in data set [3] came out at 0.015 mg/L (≈ 0.0392 µM); in [7], 0.5 mg/L (≈ 1.31 µM). In data set [19], the IC50 was determined as 2.3 nM.
In the case of `COc1ccc(-c2ccn(CC[C@](C)(C(=O)NO)S(C)(=O)=O)c(=O)c2)cn1`, the MIC90 in data set [1] was 8 mg/L (≈ 20.2 µM); in [4], over 64 mg/L; in data set [8], 16 mg/L (≈ 40.5 µM); in data set [9] it was 32 mg/L (≈ 80.9 µM); in data set [17], 32 mg/L (≈ 80.9 µM); in data set [18] it was 16 mg/L (≈ 40.5 µM). For the same compound, the values for the MIC in data set [3] and in data set [7] were 0.06 mg/L (≈ 0.152 µM) and 2 mg/L (≈ 5.06 µM), respectively. The IC50 in data set [19] was 6.4 nM.
Regarding `C[C@@](CCn1ccc(C#Cc2ccccc2)cc1=O)(C(=O)NO)S(C)(=O)=O`, the MIC90 in [1] is 0.06 mg/L (≈ 0.154 µM); in data set [4], over 64 mg/L; in data set [8], 2 mg/L (≈ 5.15 µM); in [9], 0.25 mg/L (≈ 0.644 µM); in [17], 0.5 mg/L (≈ 1.29 µM); in [18] it was 0.125 mg/L (≈ 0.322 µM). The MIC is 0.015 mg/L (≈ 0.0386 µM) in [3] and 0.25 mg/L (≈ 0.644 µM) in data set [7]. Further, it took 1.8 nM to reach half-maximal inhibition in [19] (IC50).

Source of the values: ChEMBL document CHEMBL2021790, “Pyridone methylsulfone hydroxamate LpxC inhibitors for the treatment of serious gram-negative infections” (J Med Chem, 2012).
